Results on ten compounds are retold here after patent US10233173B2, “Substituted 1,2,3-triazoles as NR2B-selective NMDA modulators” (JANSSEN PHARMACEUTICA NV, priority 2016, dated 2019).

In the first assay the target is human GluN1/GluN2B NMDA receptors (Homo sapiens, UniProt Q05586+Q13224). Put plainly: Cell-based calcium flux (FLIPR) assay on cloned human NR1/NR2B ion channels expressed in mammalian cells. Particulars: standard assay; glutamate at ~EC80; FLIPR calcium flux. The method in brief: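 Calcium influx followed by FLIPR fluorescence after 5 min compound exposure and a further 5 min co-agonist challenge: 10 μM glycine with glutamate at ~EC80 (standard) or EC40 (HTS).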
Chain of human GluN1/GluN2B NMDA receptors (Q13224 27-1484, other chains not shown): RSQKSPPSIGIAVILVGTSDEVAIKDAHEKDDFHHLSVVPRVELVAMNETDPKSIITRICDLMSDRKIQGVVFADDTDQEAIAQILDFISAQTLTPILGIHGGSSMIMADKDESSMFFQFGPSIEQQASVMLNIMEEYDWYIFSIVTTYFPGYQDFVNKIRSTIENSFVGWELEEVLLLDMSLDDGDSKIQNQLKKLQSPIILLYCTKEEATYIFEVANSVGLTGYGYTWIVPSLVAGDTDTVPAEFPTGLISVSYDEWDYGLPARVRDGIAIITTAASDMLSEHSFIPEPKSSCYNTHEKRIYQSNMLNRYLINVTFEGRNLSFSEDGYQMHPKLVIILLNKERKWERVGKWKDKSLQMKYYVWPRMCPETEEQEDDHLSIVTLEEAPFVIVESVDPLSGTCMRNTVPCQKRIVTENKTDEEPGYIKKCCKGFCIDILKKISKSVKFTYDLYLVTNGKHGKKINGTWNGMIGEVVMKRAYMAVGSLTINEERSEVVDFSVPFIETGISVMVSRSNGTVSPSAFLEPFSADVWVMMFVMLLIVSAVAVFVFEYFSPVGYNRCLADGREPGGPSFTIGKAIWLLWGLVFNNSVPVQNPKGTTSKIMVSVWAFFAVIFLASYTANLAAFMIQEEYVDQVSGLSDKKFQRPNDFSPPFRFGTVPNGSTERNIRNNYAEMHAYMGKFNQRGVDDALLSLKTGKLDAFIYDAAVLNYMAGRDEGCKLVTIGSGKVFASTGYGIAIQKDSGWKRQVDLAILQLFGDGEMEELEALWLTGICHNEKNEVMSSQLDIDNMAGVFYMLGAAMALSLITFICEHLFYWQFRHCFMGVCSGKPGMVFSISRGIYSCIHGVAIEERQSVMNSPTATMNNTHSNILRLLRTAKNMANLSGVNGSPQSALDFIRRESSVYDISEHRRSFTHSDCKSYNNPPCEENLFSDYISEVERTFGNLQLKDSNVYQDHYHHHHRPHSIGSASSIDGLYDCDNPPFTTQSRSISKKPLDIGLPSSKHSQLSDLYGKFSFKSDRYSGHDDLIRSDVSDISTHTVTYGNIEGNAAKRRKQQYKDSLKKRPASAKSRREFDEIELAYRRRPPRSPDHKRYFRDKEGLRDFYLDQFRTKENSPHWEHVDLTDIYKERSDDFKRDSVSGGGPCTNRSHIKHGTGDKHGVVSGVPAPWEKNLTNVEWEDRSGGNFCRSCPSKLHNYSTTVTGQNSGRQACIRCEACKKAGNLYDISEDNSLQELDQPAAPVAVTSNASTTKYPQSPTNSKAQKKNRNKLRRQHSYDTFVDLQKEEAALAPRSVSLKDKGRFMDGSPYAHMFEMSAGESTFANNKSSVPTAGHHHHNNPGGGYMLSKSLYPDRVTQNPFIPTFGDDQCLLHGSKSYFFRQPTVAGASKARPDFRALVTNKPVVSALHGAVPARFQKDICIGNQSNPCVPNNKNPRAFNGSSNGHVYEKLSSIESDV
On the technique in general: A change in cytosolic calcium serves as a functional read-out for many receptors and channels.
With `CC(F)(F)c1cc(-n2cc(COc3nccc(N)n3)nn2)ccc1F` [Example 580, 2-[[1-[3-(1,1-Difluoroethyl)-4-fluoro-phenyl]triazol-4-yl]methoxy]pyrimidin-4-amine], the IC50 (in general, the concentration that inhibits the measured activity by half) was 0.088 µM.
Regarding `Cc1cnc(OCc2cn(-c3ccc(C)c(OC(F)F)c3)nn2)nc1` [Example 524, 2-[[1-[3-(Difluoromethoxy)-4-methyl-phenyl]triazol-4-yl]methoxy]-5-methyl-pyrimidine], the IC50 amounted to 0.028 µM.
Regarding `Fc1cccc(OCc2cn(-c3ccc(Cl)c(OC(F)F)c3)nn2)n1` [Example 394, 2-[[1-[4-Chloro-3-(difluoromethoxy)phenyl]triazol-4-yl]methoxy]-6-fluoro-pyridine], the half-inhibitory concentration (IC50) worked out at 0.437 µM.
With `Fc1ccc(-n2cc(COc3ncc(C4CC4)cn3)nn2)cc1C(F)F` [Example 423, 5-Cyclopropyl-2-[[1-[3-(difluoromethyl)-4-fluoro-phenyl]triazol-4-yl]methoxy]pyrimidine], the IC50 stood at 0.005 µM.
The same measure, in the same setting: for `Fc1ccc(-n2cc(COc3ncc(N4CC(F)C4)cn3)nn2)cc1C(F)F` [Example 416, 2-((1-(3-(Difluoromethyl)-4-fluorophenyl)-1H-1,2,3-triazol-4-yl)methoxy)-5-(3-fluoroazetidin-1-yl)pyrimidine] the value was 0.01 µM; for `Cc1c(F)ccc(-n2cc(COc3nccc(C4CC4)n3)nn2)c1F` [Example 648, 4-Cyclopropyl-2-[[1-(2,4-difluoro-3-methyl-phenyl)triazol-4-yl]methoxy]pyrimidine], 0.592 µM.
Regarding `Cc1c(F)ccc(-n2cc(COc3nccc(C(F)F)n3)nn2)c1F` [Example 642, 4-(Difluoromethyl)-2-[[1-(2,4-difluoro-3-methyl-phenyl)triazol-4-yl]methoxy]pyrimidine], the 50% inhibitory concentration (IC50) is 2.21 µM.

The same assay, now with this note: standard assay; human GluN1/GluN2B, calcium flux (FLIPR), glutamate ~EC80.
Turning to `Cc1cnc(OCc2cn(-c3ccc(Cl)c(C(F)F)c3)nn2)nc1C` [Example 86, 2-[[1-[4-Chloro-3-(difluoromethyl)phenyl]triazol-4-yl]methoxy]-4,5-dimethyl-pyrimidine], the 50% inhibitory concentration (IC50) was 0.004 µM.
Still for that read-out and setting: for `Cn1ccc(NCc2cn(-c3ccc(F)c(OC(F)F)c3)nn2)n1` [Example 101, N-[[1-[3-(Difluoromethoxy)-4-fluoro-phenyl]triazol-4-yl]methyl]-1-methyl-pyrazol-3-amine] the value was 0.374 µM.
With `CC(=O)c1cnc(OCc2cn(-c3ccc(F)c(C(F)F)c3)nn2)nc1` [Example 156, 1-[2-[[1-[3-(Difluoromethyl)-4-fluoro-phenyl]triazol-4-yl]methoxy]pyrimidin-5-yl]ethanone], the IC50 worked out at 0.005 µM.
